Laboratory results taken from US10233156B2, “9-membered fused ring derivative” (Shionogi & Co., Ltd., priority 2015, dated 2019).

Key:
recombinant human ACC1 = recombinant human ACC1 (Homo sapiens (Human), UniProt Q13085); experiment: Measurement of inhibitory activity on human ACC1 (MALDI-TOF MS, conversion of acetyl CoA to malonyl CoA); type: biochemical; settings: recombinant human ACC1, room temperature, 1 to 3 hours
Excerpt: After a cDNA encoding human ACC1 (1 amino acid residue to 2346 amino acid residues from the N-terminus) was cloned from human liver cDNA library (BioChain), human ACC1 gene containing myc-tag and His-tag sequence at 3′ terminus was inserted into pIEXBAC3 (Novagen). Recombinant baculovirus was generated using FlashBACGOLD system (Oxford Expression Technologies) according to the manufacturer's protocol. To express human ACC1, Sf-9 cells were infected with recombinant baculovirus. After infected cells were disrupted, the filtrated lysate was subjected to Ni-affinity chromatography and anion-exchange chromatography. The fractions containing human ACC1 protein were pooled as recombinant human ACC1 solution.
(§1) Recombinant human ACC1 and recombinant human ACC2, which were prepared by the method mentioned above, were preincubated with assay buffer solution (50 mM HEPES-KOH (pH 7.4), 10 mM magnesium chloride, 6-10 mM potassium citrate, 4 mM reduced form of glutathione, 1.5 mg/ml bovine serum albumin) for one hour. Then, 0.2 μL of each this invention compound solution (in DMSO) were dispensed to 384-well microplate, 5 μL of the preincubated enzyme solution and 5 μL of substrate solution (50 mM HEPES-KOH (pH 7.4), 1 mM ATP, 0.8 mM acetyl CoA and 25-50 mM potassium bicarbonate) were added to microplate. After centrifugation and shaking, the reaction mixtures were incubated in a humidified box at room temperature for 1 to 3 hours. After the incubation, the enzyme reactions were stopped by the addition of EDTA. Then, after the samples were cocrystallized with CHCA (α-cyano-4-hydroxy cinnamic acid) matrices on MALDI target plate, by using the matrix assist laser […] time-of-flight mass spectrometer (MALDI-TOF MS), samples were measured in reflector negative mode. Deprotonated ions of acetyl CoA (AcCoA) of substrate and malonyl CoA (MalCoA) of the reaction product were detected, then, the conversion rates of acetyl CoA to malonyl CoA was calculated by the intensity of [MalCoA-H]−/(Intensity of [MalCoA-H].+Intensity of [AcCoA-H]—) using each signal strength. […] In addition, potassium citrate concentrations in assay buffer solution, potassium hydrogen carbonate concentrations in substrate solution and incubation time were adjusted by each lot of enzyme.

recombinant human ACC2 = recombinant human ACC2 (Homo sapiens (Human), UniProt O00763); experiment: Measurement of inhibitory activity on human ACC2 (MALDI-TOF MS, conversion of acetyl CoA to malonyl CoA); type: biochemical; settings: recombinant human ACC2, room temperature, 1 to 3 hours
Excerpt: After a cDNA encoding human ACC2 (27 amino acid residue to 2458 amino acid residues from the N-terminus) was cloned from human kidney cDNA library (Clontech), human ACC2 gene containing His-tag sequence at 5′ terminus was inserted into pFastBac1 (Invitrogen). Recombinant baculovirus was generated using Bac-to-Bac baculovirus expression system (Invitrogen) according to the manufacturer's protocol. To express human ACC2, Sf-9 cells were infected with recombinant baculovirus. After infected cells were disrupted, the filtrated lysate was subjected to Ni-affinity chromatography and anion-exchange chromatography. The fractions containing human ACC2 protein were pooled as recombinant human ACC2 solution.
as §1

Chain of recombinant human ACC2 (O00763 27-2458): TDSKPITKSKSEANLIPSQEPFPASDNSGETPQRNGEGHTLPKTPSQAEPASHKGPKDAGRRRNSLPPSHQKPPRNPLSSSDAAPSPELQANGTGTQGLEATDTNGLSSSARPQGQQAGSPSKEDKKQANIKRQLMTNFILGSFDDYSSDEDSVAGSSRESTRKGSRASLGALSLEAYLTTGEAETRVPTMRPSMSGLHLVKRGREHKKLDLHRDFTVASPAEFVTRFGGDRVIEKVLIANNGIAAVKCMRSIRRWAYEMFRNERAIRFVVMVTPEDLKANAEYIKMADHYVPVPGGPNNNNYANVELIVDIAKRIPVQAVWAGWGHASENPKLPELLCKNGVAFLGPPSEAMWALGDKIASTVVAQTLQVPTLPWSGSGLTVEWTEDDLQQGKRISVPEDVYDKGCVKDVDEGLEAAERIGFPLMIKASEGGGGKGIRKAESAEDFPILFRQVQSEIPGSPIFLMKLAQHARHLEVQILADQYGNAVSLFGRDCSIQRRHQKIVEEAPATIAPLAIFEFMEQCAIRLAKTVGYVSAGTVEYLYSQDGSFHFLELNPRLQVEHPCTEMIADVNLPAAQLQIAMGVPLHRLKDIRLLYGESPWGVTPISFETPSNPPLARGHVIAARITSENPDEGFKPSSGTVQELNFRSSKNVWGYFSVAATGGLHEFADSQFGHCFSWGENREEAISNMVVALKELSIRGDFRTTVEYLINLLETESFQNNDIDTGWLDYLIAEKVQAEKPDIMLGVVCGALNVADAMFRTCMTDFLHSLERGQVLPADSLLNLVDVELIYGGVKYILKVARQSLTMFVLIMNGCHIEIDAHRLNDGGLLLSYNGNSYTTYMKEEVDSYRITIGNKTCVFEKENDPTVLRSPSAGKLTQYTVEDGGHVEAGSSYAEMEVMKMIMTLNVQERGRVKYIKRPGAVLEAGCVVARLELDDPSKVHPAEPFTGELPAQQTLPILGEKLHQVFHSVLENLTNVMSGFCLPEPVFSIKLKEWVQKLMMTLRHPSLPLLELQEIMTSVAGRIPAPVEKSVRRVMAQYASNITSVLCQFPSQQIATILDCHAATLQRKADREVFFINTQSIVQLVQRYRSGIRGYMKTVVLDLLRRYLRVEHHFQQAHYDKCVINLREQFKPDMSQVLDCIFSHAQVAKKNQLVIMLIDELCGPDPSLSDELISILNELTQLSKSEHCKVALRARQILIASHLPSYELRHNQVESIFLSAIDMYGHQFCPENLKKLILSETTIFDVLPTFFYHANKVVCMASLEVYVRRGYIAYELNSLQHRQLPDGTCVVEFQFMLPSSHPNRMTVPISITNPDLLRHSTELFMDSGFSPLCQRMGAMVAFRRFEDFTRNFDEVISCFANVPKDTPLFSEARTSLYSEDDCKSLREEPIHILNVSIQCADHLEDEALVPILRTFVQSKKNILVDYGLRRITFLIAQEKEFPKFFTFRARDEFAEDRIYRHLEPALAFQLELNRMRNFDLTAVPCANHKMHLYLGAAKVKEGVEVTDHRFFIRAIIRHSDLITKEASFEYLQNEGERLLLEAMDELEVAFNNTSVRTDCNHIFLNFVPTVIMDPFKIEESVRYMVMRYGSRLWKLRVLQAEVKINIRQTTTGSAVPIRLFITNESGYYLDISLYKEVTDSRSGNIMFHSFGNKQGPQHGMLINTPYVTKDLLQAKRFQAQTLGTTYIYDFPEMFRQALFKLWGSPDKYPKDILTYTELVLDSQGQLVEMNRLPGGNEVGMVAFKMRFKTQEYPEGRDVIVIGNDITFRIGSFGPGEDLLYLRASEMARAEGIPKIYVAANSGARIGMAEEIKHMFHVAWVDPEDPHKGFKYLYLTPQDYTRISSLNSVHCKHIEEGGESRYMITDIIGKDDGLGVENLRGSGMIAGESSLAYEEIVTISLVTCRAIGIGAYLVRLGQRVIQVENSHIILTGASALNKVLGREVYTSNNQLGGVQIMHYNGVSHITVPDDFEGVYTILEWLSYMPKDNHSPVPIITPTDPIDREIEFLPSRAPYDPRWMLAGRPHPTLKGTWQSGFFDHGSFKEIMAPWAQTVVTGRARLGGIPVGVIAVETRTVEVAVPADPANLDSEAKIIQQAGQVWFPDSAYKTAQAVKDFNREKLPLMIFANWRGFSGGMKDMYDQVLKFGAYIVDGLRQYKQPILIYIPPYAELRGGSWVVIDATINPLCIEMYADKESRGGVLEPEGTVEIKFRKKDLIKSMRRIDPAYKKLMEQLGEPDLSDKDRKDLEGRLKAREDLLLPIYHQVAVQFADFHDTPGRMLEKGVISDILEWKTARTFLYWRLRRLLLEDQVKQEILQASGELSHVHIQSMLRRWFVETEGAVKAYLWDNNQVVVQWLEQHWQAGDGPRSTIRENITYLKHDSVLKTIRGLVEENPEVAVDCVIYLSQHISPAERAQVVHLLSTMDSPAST

IC50 (recombinant human ACC1): > 100000 nM | IC50 (recombinant human ACC2): 730 nM
SMILES: CC(=O)N[C@@H](C)CO[C@H]1CC[C@H](Oc2nc3ncc(OC4CC4)cc3n2C)CC1 [Example I-199]
